Assay results: PubChem BioAssay (NCI)
“And” between values parts separate entries of the source, which are not always exact repeats. Equal entries are not always repeated.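 The compound was tested at five concentrations on cells cultured in 96-well plates, with a 48-hour exposure period. Abbreviation: GI50, concentration required for 50% inhibition of growth. TGI denotes the concentration required for complete inhibition of growth.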

Assays:
Assay in all cases: NCI tumour cell line growth inhibition, 48 h
SF-539 CNS = test system: SF-539 CNS
SN12C renal = test system: SN12C renal
HOP-62 NSCLC = test system: HOP-62 NSCLC
SK-MEL-2 melanoma = test system: SK-MEL-2 melanoma
OVCAR-8 ovarian = test system: OVCAR-8 ovarian
HL-60(TB) leukemia = test system: HL-60(TB) leukemia
HOP-92 NSCLC = test system: HOP-92 NSCLC
SF-295 CNS = test system: SF-295 CNS
SNB-75 CNS = test system: SNB-75 CNS
MDA-MB-435 = test system: MDA-MB-435

Compound | GI50 (SF-539 CNS) | TGI (SF-539 CNS) | GI50 (SN12C renal) | TGI (SN12C renal) | GI50 (HOP-62 NSCLC) | TGI (HOP-62 NSCLC) | GI50 (SK-MEL-2 melanoma) | TGI (SK-MEL-2 melanoma) | GI50 (OVCAR-8 ovarian) | TGI (OVCAR-8 ovarian) | GI50 (HL-60(TB) leukemia) | TGI (HL-60(TB) leukemia) | GI50 (HOP-92 NSCLC) | TGI (HOP-92 NSCLC) | GI50 (SF-295 CNS) | TGI (SF-295 CNS) | GI50 (SNB-75 CNS) | TGI (SNB-75 CNS) | GI50 (MDA-MB-435) | TGI (MDA-MB-435)
C=C(CN1CCN(c2cccc(F)c2)CC1)c1ccc(C(=O)Nc2ccccc2N)cc1 | 1.45 µM | 5.77 µM | 2.74 µM | > 100 µM | 0.83 µM | 17.5 µM | 4.89 µM | > 100 µM | 1.99 µM | 47.9 µM | 0.357 µM | 2.26 µM | 0.6 µM | 6.97 µM | 2.77 µM | 73.6 µM | 0.492 µM | 6.24 µM | 0.283 µM | 1.74 µM
CN1CCCCC1CCN1c2ccccc2Sc2ccc(S(C)=O)cc21 (stereo not drawn) |  | > 100 µM |  | > 100 µM |  | > 100 µM |  | > 100 µM |  | > 100 µM |  | > 100 µM |  | > 100 µM |  | > 100 µM |  | > 100 µM |  | > 100 µM
O=c1cccc(C#CC#C/C=C/CO)o1 | 3.19 µM | 8.26 µM | 1.74 µM | 4.19 µM | 2.08 µM | 4.14 µM | 7.52 µM | > 31.3 µM | 2.37 µM | 6.62 µM | 3.17 µM | > 100 µM | 2.74 µM | 5.85 µM | 5.84 µM | 18.8 µM | 17 µM | 92.9 µM | 1.99 µM | 4.69 µM
COc1cc2c3c(c4c5ccccc5[nH]c4c2c(OC)c1OC)C(=O)N(CCN1CCCCC1)C3=O | 1.38 µM | 2.72 µM | 1.1 µM | 2.54 µM | 0.721 µM | 2.79 µM | 3.17 µM | 11.2 µM | 0.487 µM | 2.36 µM | 8.15 µM | > 41 µM | 1.3 µM | 5.21 µM | 1.25 µM | 3.13 µM | 2.47 µM | 7.19 µM | 1.48 µM | 3.27 µM
O=C1OC2C(O)C(=O)OC2C1O (stereo not drawn) |  | > 100 µM |  | > 100 µM |  | > 100 µM |  | > 100 µM |  | > 100 µM |  | > 100 µM |  | > 100 µM |  | > 100 µM |  | > 100 µM |  | > 100 µM
CCN(CC)CC(O)C1CCC(c2ccccc2)CC1 (stereo not drawn) |  | 40.2 µM |  | > 100 µM |  | > 100 µM |  | 37.4 µM |  | 59.7 µM |  | 58 µM |  | 86.9 µM |  | 36.6 µM |  | 64.4 µM |  | 40.2 µM
Cn1c(=S)sc2nc3ccccc3n2c1=S |  | 27.1 µM |  | 39.1 µM |  | 35.2 µM |  | > 100 µM |  | 30.1 µM |  | 5.07 µM |  | 25.8 µM |  | 50.6 µM |  | 48.8 µM |  | 35.5 µM
O=CC1(C2(C=O)c3ccccc3-c3ccccc32)c2ccccc2-c2ccccc21 | 2.01 µM | 4.37 µM | 2.34 µM | 5.83 µM | 6.17 µM | 10.4 µM | 2 µM | 4.82 µM | 2.2 µM | 6.08 µM | 1.75 µM | 3.21 µM | 1.58 µM | 3.83 µM |  |  | 3.29 µM | 8.08 µM | 1.92 µM | 4.51 µM
O=C1c2ccccc2C(=O)c2c1ccc1c2OCO1 |  | > 100 µM |  | > 100 µM |  | > 100 µM |  | > 100 µM |  | > 100 µM |  | > 100 µM |  | > 100 µM |  | > 100 µM |  | > 100 µM |  | > 100 µM
NC[C@@](O)(c1ccc(Cl)cc1)c1ccc(-c2cn[nH]c2)cc1 | 1.01 µM | 2.36 µM | 2.39 µM and 1.88 µM | > 100 µM | 2.04 µM and 0.89 µM | > 100 µM | 1.89 µM | 4.5 µM | 1.63 µM | 3.43 µM | 1.7 µM | 4.13 µM | 0.0445 µM and 0.0376 µM | 1.85 µM and 1.45 µM | 0.969 µM | 4.62 µM | 0.11 µM and 0.245 µM | 2.41 µM and 3.6 µM | 1.81 µM | 3.61 µM
C=C1N(C)c2ccc(Cl)cc2C1(C)C | 19.6 µM | 62.5 µM | 5.38 µM | 38.1 µM | 11.2 µM | 72.2 µM | 13.5 µM | 42.8 µM | 9.67 µM | > 100 µM | 2.33 µM | 8.85 µM | 3.72 µM | 22.9 µM | 4.17 µM | 38.5 µM | 4.25 µM | 77.3 µM | 3.7 µM | 23.5 µM
CNC1C(OC2C(OC3C(O)C(O)C(O)C(O)C3O)OC(C)C2(O)CO)OC(CO)C(O)C1O (stereo not drawn) (tested in a mixture with another compound) |  | > 100 µM |  | > 100 µM |  | > 100 µM |  | > 100 µM |  | > 100 µM |  | > 100 µM |  | > 100 µM |  | > 100 µM |  | > 100 µM |  | > 100 µM
CC(=O)c1ccc(NCN2C(=O)c3ccccc3C2=O)cc1 |  | > 100 µM |  | > 100 µM |  | > 100 µM |  | > 100 µM |  | > 100 µM |  | > 100 µM |  | > 100 µM |  | > 100 µM |  | > 100 µM |  | > 100 µM
CCN1CCN(C(=O)[C@]23CCC(C)(C)C[C@@H]2C2=CC[C@@H]4[C@@]5(C)C/C(=C/c6cccnc6)C(=O)C(C)(C)[C@@H]5CC[C@@]4(C)[C@]2(C)CC3)CC1 | 1.62 µM | 3 µM | 1.22 µM | 2.54 µM | 1.88 µM | 3.75 µM | 1.93 µM | 3.96 µM | 2.14 µM | 5.54 µM | 0.443 µM | 3.34 µM | 1.06 µM | 3.26 µM | 1.66 µM | 3.15 µM |  |  | 1.48 µM | 3.11 µM
O=C(CCl)Nc1ccc2c(c1)C(=O)c1ccc(NC(=O)CCl)cc1C2=O | 0.301 µM | 0.866 µM | 0.35 µM | 1.76 µM |  |  | 0.783 µM | 3.84 µM | 0.439 µM | > 100 µM | 0.454 µM | 3.08 µM | 1.13 µM | 2.61 µM | 1.44 µM | 3.29 µM | 1.01 µM | 2.22 µM | 0.395 µM | 1.81 µM
CC1=CC2C(C(C)C)CC1C1C(=O)OC(=O)C21 (stereo not drawn) |  | > 100 µM |  | > 100 µM |  | > 100 µM |  | > 100 µM |  | > 100 µM |  | 77.8 µM |  | > 100 µM |  |  |  | > 100 µM |  | > 100 µM
